Patent publication US12059420B2 (BRISTOL-MYERS SQUIBB COMPANY, priority 2018, dated 2024)
Structures can show the parent of a compound that is named as a salt.

Target: T1, human IDO1 (Homo sapiens, UniProt P14902)
T1 construct: expressed in transfected cells
Assay: IDO inhibition assay in HEK293 cells stably expressing human IDO1 (kynurenine production, Ehrlich reagent, absorbance 490 nm)
Format: cell-based
Conditions: 20 hours incubation with compound, 500 nM reference standard = 100% inhibition, read-out: IDO1 HEK Human IC50
How it was run: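 Kynurenine output of stably IDO1-transfected HEK293 cells was measured by absorbance at 490 nm after mixing supernatant with 0.2% Ehrlich reagent, following TCA stop (0.2% final, 50° C., 30 min). Cells were incubated 20 hours with compound. Inhibition was scaled between DMSO and 500 nM reference standard.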

T1 sequence (P14902 whole entry): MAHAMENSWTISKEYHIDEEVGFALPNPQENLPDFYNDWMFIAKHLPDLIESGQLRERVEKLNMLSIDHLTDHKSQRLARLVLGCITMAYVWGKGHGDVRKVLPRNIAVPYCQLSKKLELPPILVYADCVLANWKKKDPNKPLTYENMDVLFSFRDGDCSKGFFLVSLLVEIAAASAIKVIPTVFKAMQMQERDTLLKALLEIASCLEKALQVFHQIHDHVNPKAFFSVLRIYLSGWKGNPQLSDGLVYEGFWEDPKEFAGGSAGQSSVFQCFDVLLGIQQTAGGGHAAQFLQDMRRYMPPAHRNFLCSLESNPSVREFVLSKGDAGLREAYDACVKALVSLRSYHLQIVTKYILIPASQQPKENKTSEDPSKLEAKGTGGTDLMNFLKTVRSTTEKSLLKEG

SMILES	IC50
CCCN(Cc1ccc(F)cc1)c1cc(NC(=O)Cc2ccc(C)cc2)cc(-c2ccccc2-c2nnn[nH]2)n1 [Example 85, N-(2-(2-(1H-tetrazol-5-yl)phenyl)-6-((4-fluorobenzyl)(propyl)amino)pyridin-4-yl)-2-(p-tolyl)acetamide, TFA]	89.8 nM
CCCN(Cc1ccc(F)cc1)c1cc(NC(=O)Nc2ccc(Cl)cc2Cl)cc(-c2ccccc2-c2nnn[nH]2)n1 [Example 86, 1-(2-(2-(1H-tetrazol-5-yl)phenyl)-6-((4-fluorobenzyl)(propyl)amino)pyridin-4-yl)-3-(2,4-dichlorophenyl)urea]	8.6 nM
Cc1ccc(CC(=O)Nc2cc(-c3ccccc3-c3nnn[nH]3)nc(N(Cc3ccccc3)CC(C)C)c2)cc1 [Example 87, N-(2-(2-(1H-tetrazol-5-yl)phenyl)-6-(benzyl(isobutyl)amino)pyridin-4-yl)-2-(p-tolyl)acetamide, TFA]	40.7 nM
CCCN(Cc1ccccc1)c1cc(NC(=O)Nc2ccccc2F)cc(-c2cc(C)ccc2-c2nnn[nH]2)n1 [Example 88, 1-(2-(benzyl(propyl)amino)-6-(5-methyl-2-(1H-tetrazol-5-yl)phenyl)pyridin-4-yl)-3-(2-fluorophenyl)urea, TFA]	109 nM
Cc1ccc(CC(=O)Nc2cc(-c3cc(F)ccc3-c3nnn[nH]3)nc(N(Cc3ccccc3)CC(C)C)c2)cc1 [Example 89, N-(2-(benzyl(isobutyl)amino)-6-(5-fluoro-2-(1H-tetrazol-5-yl)phenyl)pyridin-4-yl)-2-(p-tolyl)acetamide, TFA]	150 nM
Cc1ccc(CC(=O)Nc2cc(-c3ccccc3-c3nnn[nH]3)nc(N(Cc3ccc(F)cc3)CC(C)C)c2)cc1 [Example 90, N-(2-(2-(1H-tetrazol-5-yl)phenyl)-6-((4-fluorobenzyl)(isobutyl)amino)pyridin-4-yl)-2-(p-tolyl)acetamide, TFA]	40.9 nM
Cc1ccc(CC(=O)Nc2cc(-c3ccccc3-c3nnn[nH]3)nc(N(Cc3ncccn3)CC(C)C)n2)cc1 [Example 92, N-(6-(2-(1H-tetrazol-5-yl)phenyl)-2-(isobutyl(pyrimidin-2-ylmethyl)amino)pyrimidin-4-yl)-2-(p-tolyl)acetamide]	146 nM
Cc1ccc(NC(=O)Nc2cc(-c3ccccc3-c3nnn[nH]3)nc(N3CCc4ccccc4C3)n2)cc1 [Example 93, 1-(6-(2-(1H-tetrazol-5-yl)phenyl)-2-(3,4-dihydroisoquinolin-2(1H)-yl)pyrimidin-4-yl)-3-(p-tolyl)urea]	3170 nM
Cc1ccc(CC(=O)Nc2cc(-c3ccccc3-c3nnn[nH]3)nc(N3CCc4ccccc4C3)n2)cc1 [Example 94, N-(6-(2-(1H-tetrazol-5-yl)phenyl)-2-(3,4-dihydroisoquinolin-2(1H)-yl)pyrimidin-4-yl)-2-(p-tolyl)acetamide]	260 nM
CC(C)c1ccc(CC(=O)Nc2cc(-c3ccccc3-c3nnn[nH]3)nc(N3CCc4ccccc4C3)n2)cc1 [Example 95, N-(6-(2-(1H-tetrazol-5-yl)phenyl)-2-(3,4-dihydroisoquinolin-2(1H)-yl)pyrimidin-4-yl)-2-(4-isopropylphenyl)acetamide]	1390 nM
Cc1ccc(CC(=O)Nc2cc(-c3ccccc3-c3nnn[nH]3)nc(N3CCN(Cc4ccccc4)C(=O)C3)n2)cc1 [Example 97, N-(6-(2-(1H-tetrazol-5-yl)phenyl)-2-(4-benzyl-3-oxopiperazin-1-yl)pyrimidin-4-yl)-2-(p-tolyl)acetamide]	1150 nM
Cc1ccc(NC(=O)Nc2cc(-c3ccccc3-c3nnn[nH]3)nc(N3C[C@@H]4C[C@H]3CN4Cc3ccccc3)n2)cc1 [Example 98, 1-(6-(2-(1H-tetrazol-5-yl)phenyl)-2-((1 S,4S)-5-benzyl-2,5-diazabicyclo [2.2.1]heptan-2-yl)pyrimidin-4-yl)-3-(p-tolyl)urea]	846 nM
CCN(CCC(F)(F)F)c1nc(NC(=O)Nc2ccc(C)cc2)cc(-c2ccccc2-c2nnn[nH]2)n1 [Example 99, 1-(6-(2-(1H-tetrazol-5-yl)phenyl)-2-(ethyl(3,3,3-trifluoropropyl)amino)pyrimidin-4-yl)-3-(p-tolyl)urea]	3660 nM
CCN(CCC(F)(F)F)c1nc(NC(=O)Cc2ccc(C)cc2)cc(-c2ccccc2-c2nnn[nH]2)n1 [Example 100, N-(6-(2-(1H-tetrazol-5-yl)phenyl)-2-(ethyl(3,3,3-trifluoropropyl)amino)pyrimidin-4-yl)-2-(p-tolyl)acetamide]	127 nM
CCN(CCC(F)(F)F)c1cc(NC(=O)Cc2ccc(C)cc2)cc(-c2ccccc2-c2nnn[nH]2)n1 [Example 101, N-(2-(2-(1H-tetrazol-5-yl)phenyl)-6-(ethyl(3,3,3-trifluoropropyl)amino)pyridin-4-yl)-2-(p-tolyl)acetamide]	514 nM
CC(C)CN(Cc1ccccc1)c1nc(Nc2nc3ccccc3o2)cc(-c2ccccc2-c2nnn[nH]2)n1 [Example 102, 6-(2-(1H-tetrazol-5-yl)phenyl)-N4-(benzo [d]oxazol-2-yl)-N2-benzyl-N2-isobutylpyrimidine-2,4-diamine]	8.6 nM
CCCN(c1cc(NC(=O)Nc2ccc(C)cc2)cc(-c2ccccc2-c2nnn[nH]2)n1)C1CCOCC1 [Example 109, 1-(2-(2-(1H-tetrazol-5-yl)phenyl)-6-(propyl(tetrahydro-2H-pyran-4-yl)amino)pyridin-4-yl)-3-(p-tolyl)urea]	4120 nM

SMILES	IC50
COCCN(c1cc(NC(=O)Nc2ccc(F)cc2)cc(-c2ccccc2-c2nnn[nH]2)n1)C1CCC(F)(F)CC1 [Example 114, 1-(2-(2-(1H-tetrazol-5-yl)phenyl)-6-((4,4-difluorocyclohexyl)(2-methoxyethyl)amino)pyridin-4-yl)-3-(4-fluorophenyl)urea]	6000 nM
CCCN(c1cc(NC(=O)Nc2ccc(C)cc2)cc(-c2ccccc2-c2nnn[nH]2)n1)C1CCC(C)(C)CC1 [Example 119, 1-(2-(2-(1H-tetrazol-5-yl)phenyl)-6-((4,4-dimethylcyclohexyl) (propyl)amino)pyridin-4-yl)-3-(p-tolyl)urea]	2010 nM
Cc1ccc(CC(=O)Nc2cc(-c3ccccc3-c3nnn[nH]3)nc(N3CC(C)OC(C)C3)c2)cc1 (stereo not drawn) [Example 125, N-(2-(2-(1H-tetrazol-5-yl)phenyl)-6-(2,6-dimethylmorpholino)pyridin-4-yl)-2-(p-tolyl)acetamide]	1110 nM
Cc1ccc(CC(=O)Nc2cc(-c3ccccc3-c3nnn[nH]3)nc(N3CCCC(C)C3)c2)cc1 (stereo not drawn) [Example 126, N-(2-(2-(1H-tetrazol-5-yl)phenyl)-6-(3-methylpiperidin-1-yl)pyridin-4-yl)-2-(p-tolyl)acetamide]	2000 nM
Cc1ccc(CC(=O)Nc2cc(-c3ccccc3-c3nnn[nH]3)nc(N3CCCCCC3)c2)cc1 [Example 127, N-(2-(2-(1H-tetrazol-5-yl)phenyl)-6-(azepan-1-yl)pyridin-4-yl)-2-(p-tolyl)acetamide]	1050 nM
Cc1ccc(CC(=O)Nc2cc(-c3ccccc3-c3nnn[nH]3)nc(N3CCCC3C)c2)cc1 (stereo not drawn) [Example 128, N-(2-(2-(1H-tetrazol-5-yl)phenyl)-6-(2-methylpyrrolidin-1-yl)pyridin-4-yl)-2-(p-tolyl)acetamide]	1800 nM
COc1ccccc1N1CCN(c2cc(NC(=O)Cc3ccc(C)cc3)cc(-c3ccccc3-c3nnn[nH]3)n2)CC1 [Example 129, N-(2-(2-(1H-tetrazol-5-yl)phenyl)-6-(4-(2-methoxyphenyl)piperazin-1-yl)pyridin-4-yl)-2-(p-tolyl)acetamide]	1250 nM
Cc1ccc(CC(=O)Nc2cc(-c3ccccc3-c3nnn[nH]3)nc(N3CCCC3)c2)cc1 [Example 131, N-(2-(2-(1H-tetrazol-5-yl)phenyl)-6-(pyrrolidin-1-yl)pyridin-4-yl)-2-(p-tolyl)acetamide]	1600 nM
Cc1ccc(CC(=O)Nc2cc(-c3ccccc3-c3nnn[nH]3)nc(N3CCc4ccccc4C3)c2)cc1 [Example 132, N-(2-(2-(1H-tetrazol-5-yl)phenyl)-6-(3,4-dihydroisoquinolin-2(1H)-yl)pyridin-4-yl)-2-(p-tolyl)acetamide]	520 nM
Cc1ccc(CC(=O)Nc2cc(-c3ccccc3-c3nnn[nH]3)nc(N3CCCC(C)(C)C3)c2)cc1 [Example 135, N-(2-(2-(1H-tetrazol-5-yl)phenyl)-6-(3,3-dimethylpiperidin-1-yl)pyridin-4-yl)-2-(p-tolyl)acetamide]	1240 nM
Cc1cncc(Nc2cc(-c3ccccc3-c3nnn[nH]3)nc(N(Cc3ccccc3)CC(C)C)c2)n1 [Example 136, 6-(2-(1H-tetrazol-5-yl)phenyl)-N2-benzyl-N2-isobutyl-N4-(6-methylpyrazin-2-yl)pyridine-2,4-diamine]	78 nM
CC(C)CN(Cc1ccccc1)c1cc(Nc2cccc(CO)n2)cc(-c2ccccc2-c2nnn[nH]2)n1 [Example 137, (6-((2-(2-(1H-tetrazol-5-yl)phenyl)-6-(benzyl(isobutyl)amino)pyridin-4-yl)amino)pyridin-2-yl)methanol]	48.7 nM
CC(C)CN(Cc1ccccc1)c1cc(Nc2ccc3c(c2)OCO3)cc(-c2ccccc2-c2nnn[nH]2)n1 [Example 138, 6-(2-(1H-tetrazol-5-yl)phenyl)-N4-(benzo[d][1,3]dioxol-5-yl)-N2-benzyl-N2-isobutylpyridine-2,4-diamine]	12 nM
CC(C)CN(Cc1ccccc1)c1cc(Nc2ccncc2F)cc(-c2ccccc2-c2nnn[nH]2)n1 [Example 139, 6-(2-(1H-tetrazol-5-yl)phenyl)-N2-benzyl-N4-(3-fluoropyridin-4-yl)-N2-isobutylpyridine-2,4-diamine]	23.4 nM
Cc1nccc(Nc2cc(-c3ccccc3-c3nnn[nH]3)nc(N(Cc3ccccc3)CC(C)C)c2)n1 [Example 140, 6-(2-(1H-tetrazol-5-yl)phenyl)-N2-benzyl-N2-isobutyl-N4-(2-methylpyrimidin-4-yl)pyridine-2,4-diamine]	142 nM
CC(C)CN(Cc1ccccc1)c1cc(Nc2ncccn2)cc(-c2ccccc2-c2nnn[nH]2)n1 [Example 141, 6-(2-(1H-tetrazol-5-yl)phenyl)-N2-benzyl-N2-isobutyl-N4-(pyrimidin-2-yl)pyridine-2,4-diamine]	39.6 nM
